Test results as given in patent US9284283B2, “Macrocyclic compounds for modulating IL-17” (ENSEMBLE THERAPEUTICS CORPORATION, priority 2012, dated 2016).
Values joined by “and” are separate entries in the source; they are usually repeats but may differ in a detail not shown here. Identical values can stand only once.

Assays:
DNFB-treated BALB/c mice = experiment: Murine model of delayed hypersensitivity (DNFB-induced ear edema); assay type: in vivo, mouse; conditions: for Reduction in edema (%): ear weight 24 h after DNFB challenge
Method: We used a murine model of fluorodinitrobenzene (DNFB)-induced ear edema to test the anti-inflammatory activity of both orally dosed and intraperitoneally dosed exemplary compounds of the invention. BALB/c mice (Harlan Sprague-Dawley, Inc., male, 6-8 weeks old) were topically treated on their shaved abdomen with 30 μL of 0.5% 1-fluoro-2,4-dinitrobenzene (DNFB) (4:1 acetone:olive oil) once on Day 0 and once on Day 1.
For oral dosing (“PO”), exemplary compounds of the invention were either suspended at 3 mg/mL in 20% Cremophor EL (Sigma) (20:80; Cremophor:water) or dissolved at 1 mg/mL or 3 mg/mL in D-α-tocopherol polyethylene glycol 1000 succinate (TPGS; Sigma)/PEG-400/water (20:60:20). For intraperitoneal dosing (“IP”), exemplary compounds of the invention were dissolved in DMSO at a concentration of 5 mg/mL. On day 7, the test compound was administered (PO at either 10 mg/kg or 30 mg/kg; IP at 1, 3, or 10 mg/kg) to DNFB-treated mice. Commercially available anti-mouse IL-17A (BioLegend) administered intraperitoneally at 5 mg/kg in PBS was used as a positive control. Thirty minutes later, 20 μL of 0.2% DNFB was applied to the right ear of animals and vehicle ([…]:olive oil) was applied to the left ear. One and four hours after DNFB challenge, a subset of mice was exsanguinated and plasma prepared from the blood. Twenty-four hours after challenge, the remaining mice were euthanized, and their ears were removed and weighed to determine the amount of edema. Plasma was assayed for interleukin-6, TNF-α, CXCL1, and interferon-γ concentrations using commercially-available assays.

[1] = tested on: murine collagen-induced arthritis; experiment: Mouse collagen-induced arthritis (CIA) model; assay type: in vivo; conditions: for reduction of overall mean Clinical Arthritis Score: FIG. 11
Method: Exemplary compounds of the invention were evaluated in a murine CIA model. […] mice (10/group) were anaesthetized with Isoflurane, shaved at the base of the tail, and injected intradermally with 150 μL of Freund's Complete Adjuvant (Sigma) containing bovine type II collagen (Elastin Products, Owensville, Mo.) (2 mg/mL) at the base of the tail on day 0 and again on day 21. On study days 24-25, onset of arthritis occurred and mice were randomized into treatment groups. Randomization into each group was done after swelling was obviously established in at least one paw (score of 1), and attempts were made to ensure approximately equal mean scores of 0.25 across the groups at the time of enrollment. Once a day oral treatment with 10 or 30 mg/kg of test compound in 20% Cremophor EL was initiated after enrollment and continued once a day as indicated through arthritis day 10. Mice were terminated on day 11. Clinical scores were calculated for each of the paws (right front, left front, right rear, and left rear) on arthritis days 1-11 and the results were summarized as a reduction in clinical arthritis score for all paws over the time period of dosing.

[2] = target: T1, biotinylated human IL-17 (binding to IL17R/Fc) (Homo sapiens, UniProt Q16552); experiment: IL-17 competition ELISA II (captured IL17R/Fc, biotinylated IL-17)
T1 construct: purchased R&D Systems 317-ILB (IL-17, biotinylated); 177-IR (IL17R/Fc)
T1 sequence (Q16552 20-155 limits assumed): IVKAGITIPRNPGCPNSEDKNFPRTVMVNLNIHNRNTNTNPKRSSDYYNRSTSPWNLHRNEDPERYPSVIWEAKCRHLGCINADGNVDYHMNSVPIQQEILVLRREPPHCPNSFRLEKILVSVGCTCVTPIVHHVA
Summary of the method: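 Anti-human IgG-coated plates captured IL17R/Fc (10 nM), then compound (5-fold dilutions from 1 μM) and biotinylated human IL-17 (20 nM stock) were added for 30 min at room temperature in PBST. Bound IL-17 detected by streptavidin-HRP/TMB at 450 nm. IC50 from 4-parameter logistic fit between no-competitor and blank controls.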

SMILES: O=C1CNC(=O)[C@@H](Cc2ccc(NC(=O)[C@H](Cc3ccccc3Cl)NC(=O)Cc3ccccc3)cc2)NC(=O)CC2(CCCC2)CC(=O)NCCCCCN1 [Compound 159]
- reduction in TNF-α, IFN-γ and edema as compared to a PBS control or DMSO control (DNFB-treated BALB/c mice; i.p. 10 mg/kg, FIG. 1): statistically significant reduction
- reduction in IL-6, IFN-γ and edema compared to a DMSO control (DNFB-treated BALB/c mice; i.p. at 1 mg/kg, 3 mg/kg, or 10 mg/kg, FIG. 2): statistically significant reduction
- Reduction in edema (%) (DNFB-treated BALB/c mice; ip, 1 mg/kg): 17%
- IFNγ Reduction (%) (DNFB-treated BALB/c mice; ip, 1 mg/kg, plasma): 54.2%
- IL6 Reduction (%) (DNFB-treated BALB/c mice; ip, 1 mg/kg, plasma): 62.6%
- Reduction in edema (%) (DNFB-treated BALB/c mice; ip, 3 mg/kg): 44%
- IFNγ Reduction (%) (DNFB-treated BALB/c mice; ip, 3 mg/kg, plasma): 85.5%
- IL6 Reduction (%) (DNFB-treated BALB/c mice; ip, 3 mg/kg, plasma): 72.2%
- Reduction in edema (%) (DNFB-treated BALB/c mice; ip, 10 mg/kg): 54.1% and 54%
- IL6 Reduction (%) (DNFB-treated BALB/c mice; ip, 10 mg/kg, plasma): 78.6%
- TNFα Reduction (%) (DNFB-treated BALB/c mice; ip, 10 mg/kg, plasma): 21.7%
- IL-6, IFN-γ, and edema, dose-dependent (DNFB-treated BALB/c mice; orally dosed in TPGS/PEG400/Water vehicle, FIG. 5): effectively reduced
- Reduction in edema (%) (DNFB-treated BALB/c mice; po, 10 mg/kg): 19.0%
- IFNγ Reduction (%) (DNFB-treated BALB/c mice; po, 10 mg/kg, plasma): 24.2%
- IL6 Reduction (%) (DNFB-treated BALB/c mice; po, 10 mg/kg, plasma): 29.8%
- Reduction in edema (%) (DNFB-treated BALB/c mice; po, 30 mg/kg): 53.7%
- IFNγ Reduction (%) (DNFB-treated BALB/c mice; po, 30 mg/kg, plasma): 64.5%
- IL6 Reduction (%) (DNFB-treated BALB/c mice; po, 30 mg/kg, plasma): 58.3%
- reduction of overall mean Clinical Arthritis Score ([1]; orally 10 mg/kg): 6%
- reduction of overall mean Clinical Arthritis Score ([1]; orally 30 mg/kg): 11%
- reduction in mean Clinical Arthritis Score on days 27-30 as compared to vehicle controls ([1]; orally 10 and 30 mg/kg in 20% Cremophor EL, FIG. 10): superior reduction

SMILES: O=C1CNC(=O)[C@@H](Cc2ccc(NC(=O)[C@@H](NC(=O)Cc3ccccc3)C3CCCCC3)cc2)NC(=O)CC2(CCCC2)CC(=O)NCCCCCN1 [Compound 186]
- IC50 [2]: < 0.1 µM

SMILES: O=C1CNC(=O)[C@@H](Cc2ccc(NC(=O)[C@H](Cc3ccccc3Cl)NC(=O)c3cccnc3)cc2)NC(=O)CC2(CCCC2)CC(=O)NCCCCCN1 [Compound 194]
- IC50 [2]: < 0.1 µM

SMILES: O=C1CNC(=O)[C@@H](Cc2ccc(NC(=O)[C@H](Cc3ccccc3Cl)NC(=O)Cc3ccccn3)cc2)NC(=O)CC2(CCCC2)CC(=O)NCCCCCN1 [Compound 226]
- IC50 [2]: < 0.1 µM
